# Reference: article PMC7465636 (Biomolecules, 2020)
# Where two headings read alike, the source gives them in different places.
# Legend:
# P. falciparum 3D7 [1] = assay: In vitro growth assay with flow cytometry, P. falciparum 3D7; type: cell-based, Plasmodium falciparum
# Description: (§1) Erythrocytes infected with P. falciparum 3D7 and the knockout strain for the PfSR25 receptor (PfSR25-) were kept in 175 cm^2 culture bottles (Greiner Bio-One) containing RPMI 1640 with 0.5% NaHCO3, 0.04% sulfate gentamicin, 0.05% hypoxanthine and supplemented with 0.5% AlbuMAX I (Gibco). The culture bottles were maintained at 37 °C and an atmosphere with 90% N2, 5% O2 and 5% CO2 Parasitemia was determined from a blood smear stained with Panotic Rapid (Laborclin).
# (§2) Red blood cells infected with P. falciparum (iRBC) asynchronously with 0.3% initial parasitemia and 1% hematocrit were incubated with different concentrations of compounds ranging from 0.0488 µM to 50 µM, for 72 h at 37 °C under mixture of gases. The control group was treated with solvent Dimethyl Sulfoxide (DMSO) (v/v); with the highest concentration of solvent bring 0.25%.
# (§3) Parasitemia was determined from the dot plots (side scatter versus fluorescence) of at least […] acquired on an Accuri C6 flow cytometer (Becton Dickinson). Initial gating was carried out with unstained, uninfected erythrocytes to account for erythrocyte autofluorescence.
# (§4) After 72 h, iRBCs were stained with nucleic acid marker SYBR Green I (1X) (Invitrogen) and mitochondria marker based on membrane potential MitoTracker Deep Red (50 nM) (Invitrogen), and were incubated for 20 min. at 37 °C. The final parasitemia was obtained by flow cytometer using a BD Accuri C6 Flow Cytometer, collecting 10^³ cells. Dot plots using FlowJo V10.6.2 software determined Parasitemia. At least three independent experiments were performed in triplicate to calculate the IC50 values for each drug.
# In order to identify potential antimalarials present in the library of compounds derived from the 1H-1,2,3-triazoles and 2H-1,2,3-triazoles, we used a culture of P. falciparum (3D7) to perform the screening tests of the compounds. To assess parasitemia at the end of the parasites incubation with the compounds for 72 h, we used a double-label: (1) SYBR Green I to mark DNA and (2) MitoTracker Deep Red as a mitochondria marker. The latter being dependent on the membrane potential, we ensured that only the marking and selection of viable parasites occurred.
# [2] = molecular target: P. falciparum PfSR25- (knockout strain for the PfSR25 receptor); assay: In vitro growth assay with flow cytometry, PfSR25- knockout strain; type: cell-based, Plasmodium falciparum; settings: for IC50 for the knockout strain compared with the 3D7 strain: PfSR25- versus 3D7; for IC50: 72 h
# Description: as §1, §2, §3, §4
# We also assessed the role of PfSR25 in terms of its susceptibility to compounds with a better antimalarial activity (9, 13, 19, 21, 22, 24 and 29) and compounds with less activity (21) based on the results obtained with the 3D7 screening. Thus, the tests were carried out like that described above and are represented in Figure 5. However, we used the knockout strain for the receptor-like PfSR25- for the tests.
# P. falciparum 3D7 [3] = settings: cited from earlier work
# [4] = type: physicochemical; settings: in our experimental conditions
# From the text: The methods used to prepare the 1-aryl-1H-1,2,3-triazoles and 2-aryl-2H-1,2,3-triazoles (54 examples) involved classical chemical transformations, and all evaluated compounds were from the group’s molecular bank and were present in other published works. […] This information can be important for future studies.
# P. falciparum Dd2 = settings: cited from earlier work
# HEK293 cells = type: cell-based, human; settings: 72 h; for survival of HEK293 cells (MTT): 0.0488–50 µM; for toxicity in HEK 293 cells (MTT): at the tested concentrations (0.0488–50 µM)
# Description: Human Embryonic Kidney Cells (HEK293) were kept in 75 cm^2 culture bottles (Greiner Bio-One) at 37 °C, 5% CO2 containing Dulbecco’s Minimal Essential Medium (DMEM), added with 10% fetal bovine serum, 1% Streptomycin and Penicillin and 3.7 g/L of NaHCO3 (Sigma). Cell passages were performed with trypsin-EDTA (Invitrocell). The number of cells was monitored by counting in a Neubauer chamber.
# To evaluate the toxicity of the triazole compounds in mammalian cells, Human Embryonic Kidney cells (HEK293). Cells were plated in flat-bottom 96-well plates at a density of 10^4 cells per well and incubated for 24 h in 150 µL media at 37 °C, 5% CO2. Cells were then treated with different concentrations of each compound, ranging from 0.0488 µM to 50 µM in 200 µL DMEM for 72 h at 37 °C and 5% CO2. Cells treated with DMSO (v/v), with the highest concentration of solvent at 0.25% were used as control. After incubation, 40 µL of MTT reagent (solution 5 mg/mL in PBS) was added to each well, and cells were incubated for further 3 h at 37 °C and 5%CO2 [35]. The media was removed, and 100 µL of DMSO was added in each well. The plates were agitated in a shaker for 10 min to dissolve precipitates. The absorbance was read at 570 nm in a FlexStation 3 (Molecular Devices). Three experiments were performed independently in triplicates.
# [5] = P. falciparum 3D7, 72 h, 0.0488–50 µM, ± standard error of the mean, read-out: IC50
# [6] = Plasmodium falciparum, 3D7, 72 h, P. falciparum 3D7, 72 h, 0.0488–50 µM, ± standard error of the mean, read-out: IC50
compound,measurement,setting,value
"Clc1cc(Cl)cc(-n2cc(/C=N/Nc3ccc(Br)cc3)nn2)c1 [Compound 21, (E)-4-((2-(4-bromophenyl)hydrazono)methyl)-1-(3,5-dichlorophenyl)-1H-1,2,3-triazole]",IC50,P. falciparum 3D7 [1]; [5],29.3 ± 0.34 µM
same,IC50,P. falciparum 3D7 [1]; [6],> 25 µM
same,IC50 for the knockout strain compared with the 3D7 strain,[2],lower IC50 values for the knockout strain
same,IC50,[2]; Plasmodium falciparum,12.4 ± 2.51 µM
CCOC(=O)C1CN(Cc2c[nH]nn2)c2cc(Cl)c(F)cc2C1=O (stereo not drawn) [III],IC50,P. falciparum 3D7 [3],1.33 µM
CCCOCc1cn(-c2cc(Cl)ccc2Cl)nn1 [Compound 4],IC50,P. falciparum 3D7 [1]; [6],20.4 ± 0.73 µM
"COc1ccc(-n2cc(/C=N/Nc3ccc(Cl)cc3)nn2)cc1 [Compound 25, (E)-4-((2-(4-chlorophenyl)hydrazono)methyl)-1-(4-methoxyphenyl)-1H-1,2,3-triazole]",IC50,P. falciparum 3D7 [1]; [5],9 ± 3.27 µM
same,IC50,P. falciparum 3D7 [1]; [6],< 10 µM
"Clc1ccc(-n2cc(/C=N/Nc3cc(Cl)ccc3Cl)nn2)cc1 [Compound 20, (E)-1-(4-chlorophenyl)-4-((2-(2,5-dichlorophenyl)hydrazono)methyl)-1H-1,2,3-triazole]",IC50,P. falciparum 3D7 [1]; [6],13.6 ± 1.2 µM
same,melting point,,181 to 182 °C
O/N=C/c1cn(-c2cc(Cl)ccc2Cl)nn1 [Compound 14],IC50,P. falciparum 3D7 [1]; [6],21.5 ± 0.84 µM
"COc1ccc(-n2cc(/C=N/Nc3ccc(F)cc3)nn2)cc1 [Compound 53, (E)-4-((2-(4-fluorophenyl)hydrazono)methyl)-1-(4-methoxyphenyl)-1H-1,2,3-triazole]",solubilization,[4],weren’t able to be solubilized
same,melting point,,195 to 197 °C
O=[N+]([O-])c1ccc(-n2cc(COc3ccc4cc(Br)ccc4c3)nn2)cc1 [I],IC50,P. falciparum 3D7 [3],14.7 µM
same,IC50,P. falciparum Dd2,13.6 µM
"Clc1ccc(Cl)c(N/N=C/c2cn(-c3cc(Cl)ccc3Cl)nn2)c1 [Compound 26, (E)-1-(2,5-dichlorophenyl)-4-((2-(2,5-dichlorophenyl)hydrazono)methyl)-1H-1,2,3-triazole]",IC50,P. falciparum 3D7 [1]; [5],9.4 ± 2.87 µM
same,IC50,P. falciparum 3D7 [1]; [6],< 10 µM
same,melting point,,200 to 201 °C
Fc1ccc(N/N=C/c2cn(-c3ccc(Cl)cc3)nn2)cc1 [Compound 19],IC50,P. falciparum 3D7 [1]; [5],8.45 ± 2.25 µM
same,IC50,P. falciparum 3D7 [1]; [6],< 10 µM
same,IC50 for the knockout strain compared with the 3D7 strain,[2],lower IC50 values for the knockout strain
same,IC50,[2]; Plasmodium falciparum,2.24 ± 0.77 µM
same,survival of HEK293 cells (MTT),HEK293 cells,above 80%
same,toxicity in HEK 293 cells (MTT),HEK293 cells,no toxicity
CCCCCCCCCC(=O)OCc1cn(-c2cc(Cl)cc(Cl)c2)nn1 [Compound 10],IC50,P. falciparum 3D7 [1]; [6],14.6 ± 0.29 µM
O=C(OCc1cnn(-c2ccccc2)n1)c1ccccc1 [Compound 8],IC50,P. falciparum 3D7 [1]; [5],27.5 ± 1.26 µM
same,IC50,P. falciparum 3D7 [1]; [6],> 25 µM
"COc1ccc(-n2cc(/C=N/Nc3cc(C)ccc3C)nn2)cc1 [Compound 54, (E)-4-((2-(2,5-dimethylphenyl)hydrazono)methyl)-1-(4-methoxyphenyl)-1H-1,2,3-triazole]",solubilization,[4],weren’t able to be solubilized
COc1ccc(-n2cc(/C=N/NC(=O)c3ccncc3)nn2)cc1 [Compound 30],IC50,P. falciparum 3D7 [1]; [6],23.2 ± 1.94 µM
CCOC(=O)c1cn(-c2ccccc2)nn1 [Compound 6],IC50,P. falciparum 3D7 [1]; [6],12.8 ± 3.02 µM
COc1ccc(-n2cc(/C=N/Nc3ccccc3)nn2)cc1 [Compound 24],IC50 for the knockout strain compared with the 3D7 strain,[2],lower IC50 values for the knockout strain
same,IC50,[2]; Plasmodium falciparum,0.99 ± 0.25 µM
same,survival of HEK293 cells (MTT),HEK293 cells,above 80%
same,toxicity in HEK 293 cells (MTT),HEK293 cells,no toxicity
"COc1ccc(-n2cc(/C=N/Nc3ccc(Br)cc3)nn2)cc1 [Compound 52, (E)-4-((2-(4-bromophenyl)hydrazono)methyl)-1-(4-methoxyphenyl)-1H-1,2,3-triazole]",solubilization,[4],weren’t able to be solubilized
same,melting point,,230 to 231 °C
O=C(N/N=C/c1cn(-c2ccc(Cl)cc2)nn1)c1ccncc1 [Compound 28],IC50,P. falciparum 3D7 [1]; [6],14.5 ± 1.13 µM
CCCCCCCCCC(=O)OCc1cn(-c2ccc(OC)cc2)nn1 [Compound 11],IC50,P. falciparum 3D7 [1]; [6],23.5 ± 2.77 µM
"(E)-1-(3,5-dichlorophenyl)-4-((2-(2,5-dimethylphenyl)hydrazono)methyl)-1H-1,2,3-triazole [Compound 22]",IC50,P. falciparum 3D7 [1]; [5],5.56 ± 0.47 µM
same,IC50,"[2]; PfSR25- knockout strain, ± standard error of the mean, read-out: IC50",4.41 ± 0.6 µM
same,IC50 for the knockout strain compared with the 3D7 strain,[2],lower IC50 values for the knockout strain
same,survival of HEK293 cells (MTT),HEK293 cells,above 80%
same,toxicity in HEK 293 cells (MTT),HEK293 cells,no toxicity
O=C(N/N=C/c1cn(-c2ccccc2)nn1)c1ccncc1 [Compound 27],IC50,P. falciparum 3D7 [1]; [6],23.1 ± 2.58 µM
Clc1ccc(N/N=C/c2cnn(-c3ccccc3)n2)cc1 [Compound 16],IC50,P. falciparum 3D7 [1]; [5],9.29 ± 1.01 µM
same,IC50,P. falciparum 3D7 [1]; [6],< 10 µM
O=C(N/N=C/c1cnn(-c2ccccc2)n1)c1ccncc1 [Compound 31],IC50,P. falciparum 3D7 [1]; [6],20.2 ± 0.79 µM
CCOCc1cn(-c2ccc(Cl)cc2)nn1 [Compound 1],IC50,P. falciparum 3D7 [1]; [6],11.7 ± 0.74 µM
O=C(OCc1cn(-c2ccccc2)nn1)c1ccccc1 [Compound 7],IC50,P. falciparum 3D7 [1]; [6],22.9 ± 0.34 µM
CCOCc1cn(-c2cc(Cl)cc(Cl)c2)nn1 [Compound 2],IC50,P. falciparum 3D7 [1]; [6],15.4 ± 2.26 µM
ON=Cc1cn(-c2ccc(Cl)cc2)nn1 [Compound 13],IC50,P. falciparum 3D7 [1]; [5],6.67 ± 1.86 µM
same,IC50,P. falciparum 3D7 [1]; [6],< 10 µM
same,IC50 for the knockout strain compared with the 3D7 strain,[2],lower IC50 values for the knockout strain
same,IC50,[2]; Plasmodium falciparum,0.89 ± 0.39 µM
same,survival of HEK293 cells (MTT),HEK293 cells,above 80%
same,toxicity in HEK 293 cells (MTT),HEK293 cells,no toxicity
"C[C@@H]1CC[C@H]2[C@@H](C)C(=O)O[C@@H]3O[C@@]4(C)CC[C@@H]1[C@]32OO4 [Artemisinin, reference compound]",IC50,"P. falciparum 3D7 [1]; Plasmodium falciparum, 3D7, 72 h, 3D7, positive control […] to 160 nM, 72 h, unit inferred, read-out: IC50 (dose-response curve, Figure 3A)",0.0062 ± 0.00073 µM
same,IC50,"[2]; Plasmodium falciparum, read-out: IC50 (dose-response curve, Figure 3B)",0.0058 ± 0.00172 µM
Fc1ccc(N/N=C/c2cnn(-c3ccccc3)n2)cc1 [Compound 17],IC50,P. falciparum 3D7 [1]; [6],14.7 ± 1.28 µM
CCCOCc1cn(-c2cc(Cl)cc(Cl)c2)nn1 [Compound 3],IC50,P. falciparum 3D7 [1]; [6],14.5 ± 1.71 µM
CCCCOCc1cn(-c2cc(Cl)cc(Cl)c2)nn1 [Compound 5],IC50,P. falciparum 3D7 [1]; [6],23.9 ± 2.01 µM
Cc1ccc(C)c(N/N=C/c2cn(-c3cc(Cl)cc(Cl)c3)nn2)c1 [Compound 23],IC50,P. falciparum 3D7 [1]; [5],9.23 ± 1.68 µM
same,IC50,P. falciparum 3D7 [1]; [6],< 10 µM
Clc1ccc(N/N=C/c2cn(-c3ccc(Cl)cc3)nn2)cc1 [Compound 18],IC50,P. falciparum 3D7 [1]; [6],17.6 ± 1.07 µM
CCCCCCCCCC(=O)OCc1cn(-c2ccc(Cl)cc2)nn1 [Compound 9],IC50 for the knockout strain compared with the 3D7 strain,[2],lower IC50 values for the knockout strain
same,IC50,[2]; Plasmodium falciparum,1.55 ± 0.55 µM
same,survival of HEK293 cells (MTT),HEK293 cells,above 80%
same,toxicity in HEK 293 cells (MTT),HEK293 cells,no toxicity
C(=N\Nc1ccccc1)/c1cnn(-c2ccccc2)n1 [Compound 15],IC50,P. falciparum 3D7 [1]; [6],18.1 ± 1.92 µM
"O=C(N/N=C/c1cn(-c2cc(Cl)cc(Cl)c2)nn1)c1ccncc1 [Compound 29, (E)-N′-((1-(3,5-dichlorophenyl)-1H-1,2,3-triazol-4-yl)methylene)isonicotinohydrazide]",IC50,P. falciparum 3D7 [1]; [5],6.96 ± 1.44 µM
same,IC50,P. falciparum 3D7 [1]; [6],< 10 µM
same,IC50,[2]; Plasmodium falciparum,9.91 ± 2.94 µM
same,survival of HEK293 cells (MTT),HEK293 cells,above 80%
same,toxicity in HEK 293 cells (MTT),HEK293 cells,no toxicity
COc1ccc(-n2cc(COC(=O)c3ccccc3)nn2)cc1 [Compound 12],IC50,P. falciparum 3D7 [1]; [6],13.5 ± 1.12 µM
